Laboratory results: ChEMBL document CHEMBL4196089, “Design, synthesis, biological evaluation and in vivo testing of dual phosphodiesterase 5 (PDE5) and histone deacetylase 6 (HDAC6)-selective inhibitors for the treatment of Alzheimer's disease” (Eur J Med Chem, 2018)

Legend:
Histone deacetylase 1 = Histone deacetylase 1 (Homo sapiens, UniProt Q13547); assay: Inhibition of full length human recombinant C-terminal FLAG/His-tagged HDAC1 expressed in baculovirus infected sf9 cells using fluorogenic HDAC substrate 3 after 30 mins by fluorescence assay
Sequence of Histone deacetylase 1 (Q13547 whole entry): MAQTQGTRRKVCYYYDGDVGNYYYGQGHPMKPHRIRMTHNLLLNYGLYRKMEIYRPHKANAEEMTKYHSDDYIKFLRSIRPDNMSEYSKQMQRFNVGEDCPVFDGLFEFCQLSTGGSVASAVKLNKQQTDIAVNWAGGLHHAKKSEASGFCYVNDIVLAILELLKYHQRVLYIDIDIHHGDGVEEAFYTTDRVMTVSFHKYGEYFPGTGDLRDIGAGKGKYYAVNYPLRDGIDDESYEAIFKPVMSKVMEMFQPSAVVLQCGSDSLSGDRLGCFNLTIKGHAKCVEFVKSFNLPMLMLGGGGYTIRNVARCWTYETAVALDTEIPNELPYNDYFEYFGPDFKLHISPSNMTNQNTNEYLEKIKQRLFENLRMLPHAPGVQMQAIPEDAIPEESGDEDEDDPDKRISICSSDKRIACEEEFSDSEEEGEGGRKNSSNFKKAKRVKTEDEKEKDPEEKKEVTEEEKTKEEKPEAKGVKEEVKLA

Histone deacetylase 2 = Histone deacetylase 2 (Homo sapiens, UniProt Q92769); assay: Inhibition of full length human recombinant C-terminal His-tagged HDAC2 expressed in baculovirus infected sf9 cells using fluorogenic HDAC substrate 3 after 30 mins by fluorescence assay
Sequence of Histone deacetylase 2 (Q92769 whole entry): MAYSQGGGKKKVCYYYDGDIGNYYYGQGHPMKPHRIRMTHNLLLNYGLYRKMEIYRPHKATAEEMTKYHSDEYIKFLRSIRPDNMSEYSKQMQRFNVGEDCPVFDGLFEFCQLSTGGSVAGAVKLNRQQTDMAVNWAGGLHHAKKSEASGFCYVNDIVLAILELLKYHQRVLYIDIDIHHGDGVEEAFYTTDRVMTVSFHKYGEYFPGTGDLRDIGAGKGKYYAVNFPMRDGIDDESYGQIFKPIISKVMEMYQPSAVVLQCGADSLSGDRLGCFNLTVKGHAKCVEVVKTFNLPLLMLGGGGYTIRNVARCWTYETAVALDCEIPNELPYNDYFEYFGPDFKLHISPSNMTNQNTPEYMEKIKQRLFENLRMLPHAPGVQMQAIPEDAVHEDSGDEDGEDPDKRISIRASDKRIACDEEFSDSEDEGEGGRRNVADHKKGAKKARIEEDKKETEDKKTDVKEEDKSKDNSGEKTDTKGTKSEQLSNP

[1] = biological target: T1, Protein deacetylase HDAC6 (Homo sapiens, UniProt Q9UBN7); assay: Inhibition of full length human recombinant N-terminal GST-tagged HDAC6 expressed in baculovirus infected sf9 cells using fluorogenic HDAC substrate 3 after 30 mins by fluorescence assay
T1 sequence (Q9UBN7 whole entry): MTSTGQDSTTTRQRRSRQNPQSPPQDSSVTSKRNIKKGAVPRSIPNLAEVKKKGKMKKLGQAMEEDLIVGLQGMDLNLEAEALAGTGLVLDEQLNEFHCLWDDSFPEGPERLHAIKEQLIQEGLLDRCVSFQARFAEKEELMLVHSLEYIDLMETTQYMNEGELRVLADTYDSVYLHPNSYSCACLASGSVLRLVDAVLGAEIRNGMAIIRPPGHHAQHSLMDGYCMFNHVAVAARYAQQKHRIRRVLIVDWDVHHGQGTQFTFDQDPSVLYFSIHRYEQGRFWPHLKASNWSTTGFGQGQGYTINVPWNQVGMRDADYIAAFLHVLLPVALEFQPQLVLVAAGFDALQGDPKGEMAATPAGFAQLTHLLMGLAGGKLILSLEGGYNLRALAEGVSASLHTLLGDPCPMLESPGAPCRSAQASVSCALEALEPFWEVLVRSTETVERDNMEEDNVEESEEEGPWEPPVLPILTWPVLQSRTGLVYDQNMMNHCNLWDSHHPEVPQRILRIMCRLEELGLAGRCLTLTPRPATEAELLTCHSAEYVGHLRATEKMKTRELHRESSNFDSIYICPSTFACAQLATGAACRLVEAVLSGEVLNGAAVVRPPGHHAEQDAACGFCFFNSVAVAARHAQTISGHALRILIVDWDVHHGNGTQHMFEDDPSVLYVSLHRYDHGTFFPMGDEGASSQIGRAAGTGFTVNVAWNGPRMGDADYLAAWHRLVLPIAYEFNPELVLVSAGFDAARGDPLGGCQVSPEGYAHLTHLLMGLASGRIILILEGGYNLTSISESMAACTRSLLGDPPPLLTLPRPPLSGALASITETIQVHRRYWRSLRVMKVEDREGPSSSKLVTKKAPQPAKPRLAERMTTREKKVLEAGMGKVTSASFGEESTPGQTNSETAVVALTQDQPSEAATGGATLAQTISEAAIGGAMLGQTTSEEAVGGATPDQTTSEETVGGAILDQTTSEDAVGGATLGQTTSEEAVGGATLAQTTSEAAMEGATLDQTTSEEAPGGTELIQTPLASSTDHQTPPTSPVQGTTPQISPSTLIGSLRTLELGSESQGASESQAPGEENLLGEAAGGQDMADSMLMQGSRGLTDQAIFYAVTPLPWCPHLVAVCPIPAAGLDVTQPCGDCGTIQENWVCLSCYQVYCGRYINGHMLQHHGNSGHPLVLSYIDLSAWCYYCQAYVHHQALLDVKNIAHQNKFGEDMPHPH

[2] = biological target: cGMP-specific 3',5'-cyclic phosphodiesterase (Homo sapiens, UniProt O76074); assay: Inhibition of full length human recombinant N-terminal GST-tagged PDE5A1 expressed in baculovirus infected sf9 cells using cGMP as substrate after 30 mins by fluorescence assay
[3] = Cytotoxicity against human THLE2 cells after 72 hrs by vialight cell proliferation assay; format: cell-based, THLE-2; settings: read-out: LC50
[4] = Effective permeability of the compound at 50 uM after 18 hrs by UV spectroscopy based PAMPA; format: ADME; settings: read-out: Peff
cells [5] = settings: Homo sapiens, SH-SY5Y, 2 h, read-out: FC
cells [6] = settings: Homo sapiens, SH-SY5Y, 2 h, read-out: FC; remark: listed apart in the source
cells [7] = settings: Homo sapiens, SH-SY5Y, 2 h, read-out: FC; remark: listed apart in the source
[8] = biological target: Histone deacetylase 3/Nuclear receptor corepressor 2 (HDAC3/NCoR2) (Homo sapiens, UniProt O15379); assay: Inhibition of full length human recombinant C-terminal His-tagged HDAC3/N-terminal GST-tagged NCOR2 (95 to 489 residues) expressed in baculovirus infected sf9 cells using fluorogenic HDAC substrate 3 after 30 mins by fluorescence assay
Sequence of Histone deacetylase 3/Nuclear receptor corepressor 2 (HDAC3/NCoR2) (O15379 whole entry, the tested form may be a part): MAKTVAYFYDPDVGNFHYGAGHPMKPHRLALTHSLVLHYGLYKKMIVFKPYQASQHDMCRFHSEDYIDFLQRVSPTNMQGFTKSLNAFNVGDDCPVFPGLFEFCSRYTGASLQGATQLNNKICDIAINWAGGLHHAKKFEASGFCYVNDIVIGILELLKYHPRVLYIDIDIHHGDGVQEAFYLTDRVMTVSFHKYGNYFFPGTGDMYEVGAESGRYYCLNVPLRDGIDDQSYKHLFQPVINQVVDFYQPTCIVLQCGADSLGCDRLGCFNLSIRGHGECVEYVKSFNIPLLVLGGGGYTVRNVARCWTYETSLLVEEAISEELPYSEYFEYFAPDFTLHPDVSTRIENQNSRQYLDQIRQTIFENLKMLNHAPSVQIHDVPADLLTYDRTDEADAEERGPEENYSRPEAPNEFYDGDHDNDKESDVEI
Sequence of Histone deacetylase 3/Nuclear receptor corepressor 2 (HDAC3/NCoR2) (Q9Y618 whole entry, further chain, the tested form may be a part): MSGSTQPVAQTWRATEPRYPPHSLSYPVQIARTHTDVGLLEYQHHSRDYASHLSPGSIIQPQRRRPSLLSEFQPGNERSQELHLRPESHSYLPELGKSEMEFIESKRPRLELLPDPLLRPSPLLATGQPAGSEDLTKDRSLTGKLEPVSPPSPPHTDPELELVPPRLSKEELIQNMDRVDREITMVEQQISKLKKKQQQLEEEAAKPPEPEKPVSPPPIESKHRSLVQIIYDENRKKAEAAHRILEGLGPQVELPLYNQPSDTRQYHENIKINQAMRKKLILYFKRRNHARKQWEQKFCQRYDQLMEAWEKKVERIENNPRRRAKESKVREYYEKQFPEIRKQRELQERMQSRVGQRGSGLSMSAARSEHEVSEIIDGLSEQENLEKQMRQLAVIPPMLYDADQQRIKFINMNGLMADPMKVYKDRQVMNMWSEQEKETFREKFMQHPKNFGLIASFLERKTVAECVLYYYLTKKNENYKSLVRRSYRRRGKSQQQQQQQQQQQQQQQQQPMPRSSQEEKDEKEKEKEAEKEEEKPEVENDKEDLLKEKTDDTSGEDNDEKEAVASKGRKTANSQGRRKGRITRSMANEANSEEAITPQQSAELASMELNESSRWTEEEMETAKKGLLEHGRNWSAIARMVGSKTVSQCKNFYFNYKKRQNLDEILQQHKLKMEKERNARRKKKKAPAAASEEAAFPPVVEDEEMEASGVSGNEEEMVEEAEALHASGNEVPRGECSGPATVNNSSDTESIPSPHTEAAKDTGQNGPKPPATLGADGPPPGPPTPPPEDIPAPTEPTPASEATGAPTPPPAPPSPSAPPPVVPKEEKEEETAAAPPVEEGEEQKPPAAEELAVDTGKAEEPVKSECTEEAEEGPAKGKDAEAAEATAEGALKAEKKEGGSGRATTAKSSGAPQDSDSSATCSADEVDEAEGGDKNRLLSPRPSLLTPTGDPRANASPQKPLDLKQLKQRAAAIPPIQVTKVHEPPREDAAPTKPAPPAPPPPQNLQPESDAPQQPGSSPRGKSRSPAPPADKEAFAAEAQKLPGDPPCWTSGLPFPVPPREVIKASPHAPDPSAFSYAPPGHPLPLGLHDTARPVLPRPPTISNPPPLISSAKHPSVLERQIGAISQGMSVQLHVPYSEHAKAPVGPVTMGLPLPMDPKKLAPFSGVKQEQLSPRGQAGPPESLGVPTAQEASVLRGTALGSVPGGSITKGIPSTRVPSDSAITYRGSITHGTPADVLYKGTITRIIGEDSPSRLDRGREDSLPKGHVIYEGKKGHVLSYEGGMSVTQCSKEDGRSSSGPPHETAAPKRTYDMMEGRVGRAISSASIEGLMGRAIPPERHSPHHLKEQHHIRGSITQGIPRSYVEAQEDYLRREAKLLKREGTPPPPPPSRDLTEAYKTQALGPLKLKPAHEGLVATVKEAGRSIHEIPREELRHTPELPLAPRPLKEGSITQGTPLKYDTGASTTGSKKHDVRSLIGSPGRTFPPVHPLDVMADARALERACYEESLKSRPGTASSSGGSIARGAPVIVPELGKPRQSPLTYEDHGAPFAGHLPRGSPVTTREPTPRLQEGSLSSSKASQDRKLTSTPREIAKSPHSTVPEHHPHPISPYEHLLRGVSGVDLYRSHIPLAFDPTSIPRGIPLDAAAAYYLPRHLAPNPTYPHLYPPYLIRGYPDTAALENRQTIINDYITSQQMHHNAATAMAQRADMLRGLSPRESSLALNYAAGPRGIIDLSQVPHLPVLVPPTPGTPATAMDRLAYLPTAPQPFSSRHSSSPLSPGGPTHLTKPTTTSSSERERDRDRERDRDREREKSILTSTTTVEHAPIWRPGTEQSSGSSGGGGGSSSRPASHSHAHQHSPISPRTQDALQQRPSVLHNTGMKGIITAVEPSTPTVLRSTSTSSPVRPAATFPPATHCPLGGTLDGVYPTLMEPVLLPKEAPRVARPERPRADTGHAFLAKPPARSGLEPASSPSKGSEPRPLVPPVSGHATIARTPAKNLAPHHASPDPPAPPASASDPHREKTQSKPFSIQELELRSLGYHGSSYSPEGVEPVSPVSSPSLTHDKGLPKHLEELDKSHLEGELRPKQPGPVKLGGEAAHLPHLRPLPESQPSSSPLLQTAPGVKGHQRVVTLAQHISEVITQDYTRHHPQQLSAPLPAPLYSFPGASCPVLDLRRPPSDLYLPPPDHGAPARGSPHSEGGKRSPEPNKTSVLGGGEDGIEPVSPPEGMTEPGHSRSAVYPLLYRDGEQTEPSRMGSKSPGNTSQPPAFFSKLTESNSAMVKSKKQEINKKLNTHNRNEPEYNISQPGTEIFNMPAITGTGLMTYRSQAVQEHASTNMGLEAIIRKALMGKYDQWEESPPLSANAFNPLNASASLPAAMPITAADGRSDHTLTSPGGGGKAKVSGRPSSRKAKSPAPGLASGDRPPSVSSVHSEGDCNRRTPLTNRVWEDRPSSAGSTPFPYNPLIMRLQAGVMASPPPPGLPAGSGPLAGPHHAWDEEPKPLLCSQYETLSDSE

Compound | IC50 (Histone deacetylase 1) | IC50 (Histone deacetylase 2) | IC50 [1] | IC50 [2] | CC50 at 72 h [3] | Papp at 18 h, 50 µM [4] | fold induction at 0.1 µM (cells [5]) | fold induction at 0.5 µM (cells [6]) | fold induction at 1 µM (cells [7]) | IC50 [8]
CCCc1nn(C)c2c(=O)[nH]c(-c3cc(Cc4ccc(C(=O)NO)c(OC)c4)ccc3OCC)nc12 | > 20000 nM | > 20000 nM | > 20000 nM | 144 nM |  |  |  |  |  | 
CCCc1nc(C)c2c(=O)[nH]c(-c3cc(Cc4ccc(C(=O)NO)s4)ccc3OCC)nn12 | 793 nM | 4390 nM | 98 nM | 3 nM | 6940 nM | 1.6 ×10⁻⁶ cm/s | 0.7 | 0.9 | 0.8 | 
CCCc1nn(C)c2c(=O)[nH]c(-c3cc(-c4ccc(C(=O)NO)s4)ccc3OCC)nc12 | 387 nM | 4800 nM | 37 nM | 7 nM | 2180 nM | 2.82 ×10⁻⁶ cm/s | 1.1 | 2.5 | 2.7 | 
CCCc1nc(C)c2c(=O)[nH]c(-c3cc(S(=O)(=O)N4CCN(CC)CC4)ccc3OCC)nn12 |  |  |  |  | > 100000 nM | 2.14 ×10⁻⁶ cm/s |  |  |  | 
CCCc1nn(C)c2c(=O)[nH]c(-c3cc(Cc4ccc(C(=O)NO)cc4F)ccc3OCC)nc12 | 2030 nM | 14600 nM | 87 nM | 149 nM | 16500 nM | 3.7 ×10⁻⁶ cm/s | 0.9 | 1.1 | 1.6 | 
CCCc1nn(C)c2c(=O)[nH]c(-c3cc(-c4ccc(CC(=O)NO)cc4)ccc3OCC)nc12 | > 20000 nM | > 20000 nM | 815 nM | 10 nM | 15400 nM | 1.97 ×10⁻⁶ cm/s | 0.6 | 0.8 | 1.2 | 
CCCc1nn(C)c2c(=O)[nH]c(-c3cc(C(O)c4ccc(C(=O)NO)cc4)ccc3OCC)nc12 (stereo not drawn) | 335 nM | 1110 nM | 89 nM | 10 nM |  |  |  |  |  | 
CCCc1nn(C)c2c(=O)[nH]c(-c3cc(C4=CCC(CC(=O)NO)CC4)ccc3OCC)nc12 (stereo not drawn) | 1810 nM | > 20000 nM | 217 nM | 14 nM |  |  |  |  |  | 
CCCc1nn(C)c2c(=O)[nH]c(-c3cc(-c4ccc(C(=O)NO)cc4)ccc3OCC)nc12 | 326 nM | 2550 nM | 42 nM | 1 nM | 8830 nM | 2.68 ×10⁻⁶ cm/s | 0.8 | 1.7 | 3.6 | 
CCCc1nn(C)c2c(=O)[nH]c(-c3cc([C@H]4CC[C@H](C(=O)NO)CC4)ccc3OCC)nc12 | 10200 nM | > 20000 nM | 5440 nM | 190 nM |  |  |  |  |  | 
CCCc1nn(C)c2c(=O)[nH]c(-c3cc(OCc4ccc(C(=O)NO)cc4)ccc3OCC)nc12 | 1080 nM | 11400 nM | 33 nM | 79 nM |  |  |  |  |  | 
CCCc1nn(C)c2c(=O)[nH]c(-c3cc(C4=CCC(C(=O)NO)CC4)ccc3OCC)nc12 (stereo not drawn) | 2880 nM | > 20000 nM | 340 nM | 27 nM |  |  |  |  |  | 
CCCc1nn(C)c2c(=O)[nH]c(-c3cc(Cc4ccc(C(=O)NO)c(F)c4)ccc3OCC)nc12 | 1110 nM | > 20000 nM | 142 nM | 31 nM | 3510 nM | 2.84 ×10⁻⁶ cm/s | 2 | 2.7 | 1.4 | 
CCCc1nn(C)c2c(=O)[nH]c(-c3cc(S(=O)(=O)N4CCN(C)CC4)ccc3OCC)nc12 |  |  |  |  | > 100000 nM |  |  |  |  | 
CCCc1nn(C)c2c(=O)[nH]c(-c3cc(C(OC)c4ccc(C(=O)NO)cc4)ccc3OCC)nc12 (stereo not drawn) | 357 nM | 1110 nM | 77 nM | 20 nM |  |  |  |  |  | 
CCCc1nn(C)c2c(=O)[nH]c(-c3cc(Nc4ccc(C(=O)NO)cc4)ccc3OCC)nc12 | 490 nM | > 20000 nM | 66 nM | 2 nM |  |  |  |  |  | 
CCCc1nn(C)c2c(=O)[nH]c(-c3cc(Cc4ccc(C(=O)NO)o4)ccc3OCC)nc12 | 2230 nM | 17500 nM | 168 nM | 3 nM |  |  |  |  |  | > 20000 nM
CCCc1nn(C)c2c(=O)[nH]c(-c3cc(Cc4ccc(C(=O)NO)cc4OC)ccc3OCC)nc12 | > 20000 nM | > 20000 nM | > 20000 nM | 47 nM |  |  |  |  |  | 
CCCc1nc(C)c2c(=O)[nH]c(-c3cc(Cc4ccc(C(=O)NO)cc4)ccc3OCC)nn12 | 1830 nM | 5190 nM | 256 nM | 13 nM | 26700 nM | 1.86 ×10⁻⁶ cm/s | 0.4 | 0.9 | 1.3 | 
CCCc1nn(C)c2c(=O)[nH]c(-c3cc(C4CCC(C(=O)NO)CC4)ccc3OCC)nc12 (stereo not drawn) | 8380 nM | > 20000 nM | 3110 nM | 146 nM |  |  |  |  |  | 
CCCc1nn(C)c2c(=O)[nH]c(-c3cc(N4CCC(C(=O)NO)CC4)ccc3OCC)nc12 | 7200 nM | > 20000 nM | 1180 nM | 36 nM |  |  |  |  |  | 
CCCc1nn(C)c2c(=O)[nH]c(-c3cc([C@H]4CC[C@@H](C(=O)NO)CC4)ccc3OCC)nc12 | 937 nM | > 20000 nM | 48 nM | 53 nM | 16000 nM | 1.68 ×10⁻⁶ cm/s | 0.7 | 1.8 | 5.4 | 
CCCc1nn(C)c2c(=O)[nH]c(-c3cc(C(=O)c4ccc(C(=O)NO)s4)ccc3OCC)nc12 | 276 nM | 799 nM | 192 nM | 3 nM |  |  |  |  |  | 
